From ChEMBL document CHEMBL1141167, “Antitumor activity of new substituted 3-(5-imidazo[2,1-b]thiazolylmethylene)-2-indolinones and study of their effect on the cell cycle” (2005)
Values joined by “and” are separate entries in the source; they are usually repeats but may differ in a detail not shown here. Equal entries are not always repeated.

What was measured:
HT-29 [1] = test: Percentage of Cells after administration of compound dissolved in DMSO (10e-7M) towards colon adenocarcinoma cell line HT-29 in G2/M Phase after 24 Hours of Treatment [control = 12.8]; assay type: functional, Homo sapiens
[2] = tested on: Panel NCI-60 (60 carcinoma cell lines); test: Total growth inhibition of human MG-MID cell line at 10E-4 M concentration; assay type: functional
Ovarian carcinoma cell [3] = test: Total growth inhibition of human Ovarian cell line at 10E-4 M concentration; assay type: functional
NSCLC [4] = test: Total growth inhibition of human NSCLC cell line at 10E-4 M concentration; assay type: functional
Prostate cell [5] = test: Total growth inhibition of human Prostate cell line at 10E-4 M concentration; assay type: functional
Colon cell [6] = test: Cytotoxic effect dissolved in DMSO against Colon cell line at 10E-4 M concentration; assay type: functional, Homo sapiens
[7] = tested on: Panel NCI-60 (60 carcinoma cell lines); test: Cytotoxic effect dissolved in DMSO against MG-MID cell line at 10E-4 M concentration; assay type: functional, Homo sapiens
Melanoma cell [8] = test: Total growth inhibition of human Melanoma cell line at 10E-4 M concentration; assay type: functional
Melanoma cell [9] = test: Cytotoxic effect dissolved in DMSO against Melanoma cell line at 10E-4 M concentration; assay type: functional, Homo sapiens
Leukemia cell [10] = test: Total growth inhibition of human Leukemia cell line at 10E-4 M concentration; assay type: functional
CNS cell [11] = test: Growth inhibitory concentration dissolved in DMSO against human CNS cell line at 10E-4 M concentration; assay type: functional
CNS cell [12] = test: Cytotoxic effect dissolved in DMSO against CNS cell line at 10E-4 M concentration; assay type: functional, Homo sapiens
HT-29 [13] = test: Percentage of Cells after administration of compound dissolved in DMSO (10e-5 M) towards colon adenocarcinoma cell line HT-29 in G2/M Phase after 24 Hours of Treatment [control = 12.8]; assay type: functional, Homo sapiens
HT-29 [14] = test: Percentage of Cells after administration of compound dissolved in DMSO (10e-8 M) towards colon adenocarcinoma cell line HT-29 in G2/M Phase after 24 Hours of Treatment [control = 12.8]; assay type: functional, Homo sapiens
HT-29 [15] = test: Percentage of Cells after administration of compound dissolved in DMSO (10e-6 M) towards colon adenocarcinoma cell line HT-29 in G2/M Phase after 24 Hours of Treatment [control = 12.8]; assay type: functional, Homo sapiens
HT-29 [16] = test: Percentage of Cells after administration of compound dissolved in DMSO (10e-4 M) towards colon adenocarcinoma cell line HT-29 in G2/M Phase after 24 Hours of Treatment [control = 12.8]; assay type: functional, Homo sapiens
Colon cell [17] = test: Growth inhibitory concentration dissolved in DMSO against human Colon cell line at 10E-4 M concentration; assay type: functional
Leukemia cell [18] = test: Cytotoxic effect dissolved in DMSO against Leukemia cell line at 10E-4 M concentration; assay type: functional, Homo sapiens
NSCLC [19] = test: Cytotoxic effect dissolved in DMSO against NSCLC cell line at 10E-4 M concentration; assay type: functional, Homo sapiens
Colon cell [20] = test: Total growth inhibition of human Colon cell line at 10E-4 M concentration; assay type: functional; design: unit not given here
Ovarian carcinoma cell [21] = test: Growth inhibitory concentration dissolved in DMSO against human Ovarian cell line at 10E-4 M concentration; assay type: functional
[22] = tested on: Panel NCI-60 (60 carcinoma cell lines); test: Growth inhibitory concentration dissolved in DMSO against human MG-MID cell line at 10E-4 M concentration; assay type: functional
Prostate cell [23] = test: Growth inhibitory concentration dissolved in DMSO against human Prostate cell line at 10E-4 M concentration; assay type: functional
Melanoma cell [24] = test: Growth inhibitory concentration dissolved in DMSO against human Melanoma cell line at 10E-4 M concentration; assay type: functional
NSCLC [25] = test: Growth inhibitory concentration dissolved in DMSO against human NSCLC cell line at 10E-4 M concentration; assay type: functional; design: unit not given here
Breast carcinoma cell [26] = test: Total growth inhibition of human Breast cell line at 10E-4 M concentration; assay type: functional
Renal cell = test: Growth inhibitory concentration dissolved in DMSO against human Renal cell line at 10E-4 M concentration; assay type: functional; design: unit not given here
Breast carcinoma cell [27] = test: Growth inhibitory concentration dissolved in DMSO against human Breast cell line at 10E-4 M concentration; assay type: functional

SMILES: Cc1cn2c(/C=C3/C(=O)Nc4ccc(O)cc43)c(C)nc2s1
- Activity (HT-29 [1]): 13.6%
- TGI [2]: 4.44
- TGI (Ovarian carcinoma cell [3]): 4.09
- TGI (NSCLC [4]): 4.36
- TGI (Prostate cell [5]): 4.42
- LC50 (Colon cell [6]): 4.03
- LC50 [7]: 4.05
- TGI (Melanoma cell [8]): 4.5
- LC50 (Melanoma cell [9]): 4.08
- TGI (Leukemia cell [10]): 5.11
- pGI50 (-log GI50, M) (CNS cell [11]): 5.41
- LC50 (CNS cell [12]): 4.02
- Activity (HT-29 [13]): 72.7%
- Activity (HT-29 [14]): 12.2%
- Activity (HT-29 [15]): 13.4%
- Activity (HT-29 [16]): 75.2%
- pGI50 (negative log of molar GI50) (Colon cell [17]): 5.78
- LC50 (Leukemia cell [18]): 4.47
- LC50 (NSCLC [19]): 4.02
- TGI (Colon cell [20]): 4.35 and 4.5
- pGI50 (negative log of GI50 in M) (Ovarian carcinoma cell [21]): 5.16
- GI50 [22]: 5.48
- pGI50 (negative log molar GI50) (Prostate cell [23]): 5.52
- pGI50 (-log molar GI50) (Melanoma cell [24]): 5.41
- GI50 (NSCLC [25]): 5.4
- TGI (Breast carcinoma cell [26]): 4.66
- GI50 (Renal cell): 5.3
- pGI50 (-log GI50, M) (Breast carcinoma cell [27]): 5.56
